Source: US11396453B2, “Metal compound having phase transformation and method of preparing the same” (WEBIOTREE CO., LTD, priority 2020, dated 2022)

Key:
[1] = Particle size by DLS (Zetasizer Nano ZS90); type: physicochemical; conditions: dispersant water, 25° C.
Procedure: Instrument: Zetasizer Nano ZS90
The particle size of the powder was measured by Zetasizer of Malvern Panalytical Ltd. (UK) using […], and the particle size was measured after dispersing the sample in tertiary distilled water using the model name NANO ZS ZS90.

[2] = Dispersibility evaluation: transmission through PVDF 0.45 μm filter in pH 4.5 buffer, measured by HPLC; type: physicochemical; conditions: 38° C.
Procedure: Confirmation Experiment by Difference in Particle Size and Concentration in Weakly Acidic Solvent of Metal Phase Transformation Compound and Peptide (PalGHK)
PVDF 0.45 μm filter is used
Measurement is performed using HPLC with stirring for 24 hours.
Temperature conditions similar to the temperature inside the body (38° C.) is maintained
The solvent is the same as the pH 4.5 buffer, and experiment is performed at 500 or 1000 ppm based on the peptide content of the sample raw material.
Concentration is calculated based on the peptide content (approximately 71%) in the metal compound.
Concentration is calculated based on the peptide content (about 83%) in the peptide (palGHK).

Question: What does the source list for palmitoyl-GHK [palGHK]?
Answer: average size (DLS) of transmitted particles ([1]; 500 ppm): 13.09 nm; average size (DLS) of transmitted particles ([1]; 1000 ppm): 12.18 nm; dispersibility (filter transmission) ([2]; 500 ppm based on peptide content, time 0 hr): 0%; dispersibility (filter transmission) ([2]; 500 ppm based on peptide content, time 2 hr): 21.3%; dispersibility (filter transmission) ([2]; 500 ppm based on peptide content, time 4 hr): 27.4%; dispersibility (filter transmission) ([2]; 500 ppm based on peptide content, time 6 hr): 37.6%; dispersibility (filter transmission) ([2]; 500 ppm based on peptide content, time 8 hr): 39.8%; dispersibility (filter transmission) ([2]; 500 ppm based on peptide content, time 10 hr): 37.8%; dispersibility (filter transmission) ([2]; 500 ppm based on peptide content, time 12 hr): 35.6%; dispersibility (filter transmission) ([2]; 500 ppm based on peptide content, time 12 hr, listed as peptide): about 35%; dispersibility (filter transmission) ([2]; 1000 ppm based on peptide content, time 0 hr): 0%; dispersibility (filter transmission) ([2]; 1000 ppm based on peptide content, time 2 hr): 18.7%; dispersibility (filter transmission) ([2]; 1000 ppm based on peptide content, time 4 hr): 27.8%; dispersibility (filter transmission) ([2]; 1000 ppm based on peptide content, time 6 hr): 33.2%; dispersibility (filter transmission) ([2]; 1000 ppm based on peptide content, time 8 hr): 42.9%; dispersibility (filter transmission) ([2]; 1000 ppm based on peptide content, time 10 hr): 47.8%; dispersibility (filter transmission) ([2]; 1000 ppm based on peptide content, time 12 hr): 47.8%; dispersibility (filter transmission) ([2]; 1000 ppm based on peptide content, time 12 hr, listed as peptide): about 47%
